Laboratory results published in patent US7973062B2, “Androgen receptor-ablative agents” (The Ohio State University Research Foundation, priority 2008, dated 2011).

Experiments:
Type in all cases: cell-based
[1] = test system: LNCaP androgen-responsive prostate cancer cells; test: MTT cell viability assay, LNCaP cells; details: 48 h
Method: Cell Counting and Cell Viability Assay. LNCaP or PC-3 cells were placed in six-well plates (2.5×10^5 cells/well) in 10% FBS-supplemented RPMI 1640 for 24 h, and treated with various concentrations of compound 12 for additional 24, 48 and 72 h. Cells were then trypsinized and counted by using a Coulter counter (Model Z1 D/T, Beckman Coulter, Fullerton, Calif.). Cell viability was assessed by using the 3-(4,5-dimethylthiazol-2-yl)-2,5-diphenyl-2H-tetrazolium bromide (MTT) assay in six replicates in 96-well plates. LNCaP or PC-3 cells were seeded at 6000 cells per well in 10% FBS-supplemented RPMI 1640 for 24 h, followed by treatments with various compounds in 5% FBS-supplemented RPMI 1640 at the indicated concentrations. Controls received DMSO at a concentration equal to that in drug-treated cells. After the end of incubation, MTT (0.5 mg/ml) in 10% FBS-supplemented RPMI 1640 was added to each well, and cells were incubated at 37° C. for 2 hours. Medium was removed and the reduced MTT dye was solubilized in DMSO (200 μl/well). Absorbance was determined at 570 nm by a 96-well plate reader.

[2] = test system: PARP cleavage, caspase 3 and caspase 7 activation; test: Western blot of apoptosis-related biomarkers in LNCaP cells; details: 72 h
AR promoter = test: AR promoter-luciferase reporter assay in transiently transfected LNCaP cells; details: compounds at 10 μM, 48 h, ciglitazone and Δ2CG at 20 μM
From the text: (§1) Transfection and Luciferase assay. The 3.6-kilobase AR promoter-linked reporter plasmid p-3600ARCAT was kindly provided by Dr. Chawnshang Chang (University of Rochester Medical Center, Rochester, N.Y.). The AR promoter gene (−3600 to +550) encompassing the transcription start site was isolated by using PCR to generate hAR-luc with suitable primers. The fragment was subcloned into the pGL3 luciferase reporter vector (Promega, Madison, Wis.) at KpnI and BglII in the multiple cloning site. The PPRE-x3-TK-Luc reporter vector contains three copies of the PPAR-response element (PPRE) upstream of the thymidine kinase promoter-luciferase fusion gene and was kindly provided by Dr. Bruce Spiegelman (Harvard University, Cambridge, Mass.). The pCMVSp1 plasmid was purchased from Origene Technologies, Inc. (Rockville, Md.). LNCaP or PC3 cells were transfected with 5 μg of individual plasmids in an Amaxa Nucleofector using a cell line-specific nucleofector kit according to the manufacturer's protocol (Amaxa Biosystems, Cologne, Germany), and then seeded in 6-well plates at 5×10^5 cells per well for 48 h. The transfection efficiency was determined to be 70-80% by transfecting cells with 2 μg of pmaxGFP plasmid, followed by fluorescence microscopy to measure GFP expression. For each transfection, herpes simplex virus thymidine kinase promoter-driven Renilla reniformis luciferase was used as an internal control for normalization.
For the reporter gene assay, after transfection, cells were cultured in 24-well plates in 10% FBS-supplemented RPMI 1640 medium for 48 h, subject to different treatments for the indicated times, collected, and lysed with passive lysis buffer (Promega). Fifty-μl aliquots of the lysates were added to 96-well plates, and luciferase activity was monitored after adding 100 μl of luciferase substrate (Promega) each well by using a MicroLumatPlus LB96V luminometer (Berthold Technologies, Oak Ridge, Tenn.) with the WinGlow software package. All transfection experiments were carried out in six replicate.

PPARγ = molecular target: T1, PPARγ (Homo sapiens, UniProt P37231); test: PPRE-luciferase reporter assay (PPRE-x3-TK-Luc) in PC-3 cells; details: PC-3 cells transfected with PPRE-x3-TK-Luc
T1 construct: In PC-3 cells transfected with a reporter construct (PPRE-x3-TK-Luc); endogenous in cells; host or cells: PC-3
T1 sequence (P37231 1-505): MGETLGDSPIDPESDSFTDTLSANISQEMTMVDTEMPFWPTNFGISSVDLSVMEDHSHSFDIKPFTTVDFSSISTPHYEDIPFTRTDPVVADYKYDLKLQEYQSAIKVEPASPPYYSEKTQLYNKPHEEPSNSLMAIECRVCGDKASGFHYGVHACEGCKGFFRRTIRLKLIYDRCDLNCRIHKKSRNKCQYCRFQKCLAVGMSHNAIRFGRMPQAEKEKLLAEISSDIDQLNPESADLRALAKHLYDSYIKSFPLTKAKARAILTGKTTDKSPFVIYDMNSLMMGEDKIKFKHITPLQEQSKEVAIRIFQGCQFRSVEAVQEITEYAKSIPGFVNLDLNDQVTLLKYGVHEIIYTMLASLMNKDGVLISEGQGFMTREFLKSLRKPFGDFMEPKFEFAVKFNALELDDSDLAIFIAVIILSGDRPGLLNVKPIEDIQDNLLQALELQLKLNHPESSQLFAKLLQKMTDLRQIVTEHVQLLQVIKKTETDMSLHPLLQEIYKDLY
From the text: as §1, with “The transfection efficiency was determined to be 70-80% by transfecting cells with 2 μg of pmaxGFP plasmid, followed by fluorescence microscopy to measure GFP expression.” left out
Fifty-μl aliquots of the lysates were added to 96-well plates, and luciferase activity was monitored after adding 100 μl of luciferase substrate (Promega) each well by using a MicroLumatPlus LB96V luminometer (Berthold Technologies, Oak Ridge, Tenn.) with the WinGlow software package. All transfection experiments were carried out in six replicate.

[3] = test system: androgen receptor (AR) expression; test: Western blot analysis of AR protein expression in LNCaP cells; details: for suppression of AR protein expression (in words): 72 h, Western blot
Method: RT-PCR and Immunoblotting. LNCaP cells were cultured in T25 flasks at an initial density of 1×10^6 cells/flask. After exposure to various compounds at the indicated conditions, cells were subject to total RNA isolation by using an RNeasy mini-kit (QIAGEN, Valencia, Calif.). RNA concentrations were determined by measuring absorption at 260 nm in a spectrophotometer. Aliquots of 6 μg of total RNA from each sample were reverse-transcribed to cDNA using an Omniscript RT Kit (QIAGEN) according to the manufacturer's instructions, using suitable primers.
For immunoblotting, protein extracts were prepared by M-PER Mammalian Protein Extraction Reagent (Pierce, Rockford, Ill.) with freshly added 1% phosphatase and protease inhibitor cocktails (Calbiochem) followed by centrifugation at 13,000×g for 10 min. Supernatant was collected and protein concentration was determined by protein assay reagent (Bio-Rad, CA). Protein extracts were then suspended in 2×SDS sample buffer, and subject to 10% SDS-polyacrylamide gels. After electrophoresis, proteins were transferred to nitrocellulose membranes using a semidry transfer cell. The transblotted membrane was washed twice with Tris-buffered saline containing 0.1% Tween 20 (TBST). After blocking with TBST containing 5% nonfat milk for 1 h, the membrane was incubated with mouse monoclonal anti-AR (Santa Cruz) or anti-β-actin (MP Biomedicals) antibodies (diluted 1:1000) in 1% TBST nonfat milk at 4° C. overnight. After incubation with the primary antibody, the membrane was washed three times with TBST for a total of 30 min, followed by incubation with horseradish peroxidase conjugated goat anti-mouse IgG (diluted 1:2500) for 1 h at room temperature. After three thorough washes with TBST for a total of 30 min, the immunoblots were visualized by enhanced chemiluminescence.

Question: Which results are given for `CC1(CN2C(=O)S/C(=C\c3cc(Br)c(O)c(Br)c3)C2=O)CCCCC1` [Compound 16, 5-(3,5-Dibromo-4-hydroxy-benzylidene)-3-(1-methyl-cyclohexylmethyl)-thiazolidine-2,4-dione]?
Answer: inhibition of LNCaP cell viability (in words) [1]: optimal agents; apoptosis-related biomarkers: PARP cleavage, proteolytic activation of caspase 3 and caspase 7 [2]: dose-dependent effects; suppression of AR promoter-luciferase activity / AR transcription (in words) (AR promoter): optimal agents; PPARγ activation (in words) (PPARγ): lacked appreciable activity; IC50 ([3]; 72-h exposure, Western blot (FIG. 4C), read-out: IC50 for suppressing AR expression): ~4 µM

Question: Which results are given for `CC1(COc2ccc(C=C3SC(=O)NC3=O)cc2)CCCCC1` [Δ2CG, reference compound]?
Answer: PPARγ activation (in words) (PPARγ): lacked appreciable activity; suppression of AR protein expression (in words) ([3]; 10% FBS): modestly higher potency than ciglitazone; concentration required for complete suppression of AR protein expression ([3]; 10% FBS, Western blot (FIG. 2A)): approximately 30 μM

Question: Which results are given for `CC1(CN2C(=O)SC(Cc3ccc(O)c(C(F)(F)F)c3)C2=O)CCCCC1` (stereo not shown) [Compound 20, 5-(4-Hydroxy-3-trifluoromethyl-benzyl)-3-(1-methyl-cyclohexylmethyl)-thiazolidine-2,4-dione]?
Answer: inhibition of LNCaP cell viability (in words) [1]: retained the ability to suppress AR expression and cell viability, though with slightly lower potency; suppression of AR protein expression (in words) ([3]; 10% FBS): retained the ability to suppress AR expression and cell viability, though with slightly lower potency

Question: With `CCOc1cc(/C=C2\SC(=O)NC2=O)ccc1OCC1(C)CCCCC1` [Compound 6, 5-[3-Ethoxy-4-(1-methyl-cyclohexylmethoxy)-benzylidene]-thiazolidine-2,4-dione] as the compound, how does the “suppression of AR protein expression (in words)” value ([3]; 10% FBS) read?
Answer: dose-dependent effect on suppressing AR protein expression

Question: Which “suppression of AR promoter-luciferase activity / AR transcription (in words)” value (AR promoter) does the source give for `CC1(CN2C(=O)S/C(=C\c3ccc(O)cc3)C2=O)CCCCC1` [Compound 9, 5-(4-Hydroxy-benzylidene)-3-(1-methyl-cyclohexylmethyl)-thiazolidine-2,4-dione] here?
Answer: enhanced AR-ablating activity

Question: And the “suppression of AR protein expression (in words)” value ([3]; 10% FBS)?
Answer: dose-dependent effect on suppressing AR protein expression

Question: For `CC1(CN2C(=O)S/C(=C\c3cccc(O)c3)C2=O)CCCCC1` [Compound 11, 5-(3-Hydroxy-benzylidene)-3-(1-methyl-cyclohexylmethyl)-thiazolidine-2,4-dione], which “inhibition of LNCaP cell viability (in words)” value [1] is on record?
Answer: abolished the ability to suppress

Question: And the “suppression of AR promoter-luciferase activity / AR transcription (in words)” value (AR promoter)?
Answer: abolished the ability to suppress

Question: Which “inhibition of LNCaP cell viability (in words)” value [1] does the source give for `CC1(CN2C(=O)S/C(=C\c3ccccc3O)C2=O)CCCCC1` [Compound 10, 5-(2-Hydroxy-benzylidene)-3-(1-methyl-cyclohexylmethyl)-thiazolidine-2,4-dione] here?
Answer: abolished the ability to suppress

Question: And the “suppression of AR promoter-luciferase activity / AR transcription (in words)” value (AR promoter)?
Answer: abolished the ability to suppress

Question: `CC1(COc2cccc(/C=C3\SC(=O)NC3=O)c2)CCCCC1` [Compound 1, 5-[3-(1-Methyl-cyclohexylmethoxy)-benzylidene]-thiazolidine-2,4-dione] was tested. Which “suppression of AR promoter-luciferase activity / AR transcription (in words)” value (AR promoter) did it give?
Answer: enhanced AR-ablating activity

Question: And the “suppression of AR protein expression (in words)” value ([3]; 10% FBS)?
Answer: dose-dependent effect on suppressing AR protein expression
